Data as given in US20260256659A1, “COMPLEX FOR SEALING DENTINAL TUBULE, REAGENT FOR TREATING DENTIN HYPERSENSITIVITY, AND USE THEREOF” (ANHUI MEDICAL UNIVERSITY, priority 2023, published 2026).

Tested on: Streptococcus mutans
Test: In vitro antibacterial properties, turbidimetric method and plate coating method
Type: cell-based
Settings: bacterial absorbance after 4 h incubation and bacterial number counting
Description: The anti-Streptococcus mutans performance of the prepared dentin sealing materials was evaluated by a turbidimetric method and a plate coating method.

For [Cl-].[Cl-].[Sr+2] [Sr, strontium chloride], the “ability to inhibit Streptococcus mutans” value was “ability to inhibit Streptococcus mutans”.
